The numbers were not newly measured in US20240252489A1, “REPEATED ADMINISTRATION OF DIHYDROERGOTAMINE FOR TREATMENT OF FREQUENT MIGRAINE HEADACHES” (Woodward Specialty LLC, priority 2020, published 2024), which cites them from elsewhere.

The data set relates to patients with frequent migraine headaches. As to conditions: 15 min after administration; reported in the literature.

With `N[C@@H]1c2cccnc2[C@H](OC(=O)N2CCC(n3c(=O)[nH]c4ncccc43)CC2)CC[C@H]1c1cccc(F)c1F` [Rimegepant], the “subjects having pain relief” value is 8%.
